Measured values taken from PubChem BioAssay (NCI).
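Results reflect a 48-hour exposure of cells in 96-well plates to compound at five concentrations. At the TGI there is no net growth.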

Experiments:
Assay in all cases: NCI anticancer screen, dose series, 48 h
SF-539 CNS = test system: SF-539 CNS
UACC-62 melanoma = test system: UACC-62 melanoma
KM12 colon = test system: KM12 colon
SK-MEL-5 melanoma = test system: SK-MEL-5 melanoma
OVCAR-8 ovarian = test system: OVCAR-8 ovarian
DU-145 prostate = test system: DU-145 prostate
MDA-N = test system: MDA-N
OVCAR-3 ovarian = test system: OVCAR-3 ovarian
SF-295 CNS = test system: SF-295 CNS
786-0 renal = test system: 786-0 renal
SNB-19 CNS = test system: SNB-19 CNS
RXF 393 renal = test system: RXF 393 renal
IGROV1 ovarian = test system: IGROV1 ovarian

| Compound | TGI (SF-539 CNS) [µM] | TGI (UACC-62 melanoma) [µM] | TGI (KM12 colon) [µM] | TGI (SK-MEL-5 melanoma) [µM] | TGI (OVCAR-8 ovarian) [µM] | TGI (DU-145 prostate) [µM] | TGI (MDA-N) [µM] | TGI (OVCAR-3 ovarian) [µM] | TGI (SF-295 CNS) [µM] | TGI (786-0 renal) [µM] | TGI (SNB-19 CNS) [µM] | TGI (RXF 393 renal) [µM] | TGI (IGROV1 ovarian) [µM] |
| --- | --- | --- | --- | --- | --- | --- | --- | --- | --- | --- | --- | --- | --- |
| CC1C(OC2O[C@@H]3O[C@@]4(C)CC[C@H]5[C@H](C)CC[C@@H](C2C)[C@@]35O4)O[C@@H]2O[C@@]3(C)CC[C@H]4[C@H](C)CC[C@@H]1[C@@]24O3 (stereo partly drawn) | > 50 | > 50 | > 50 | > 50 | > 50 | > 50 | > 50 | > 50 | > 50 | > 50 | > 50 |  |  |
| CC1=CC(=O)CC(C)(C)C1/C=C/C(C)=C/C=C/C(C)=C/C=C/C=C(C)/C=C/C=C(C)/C=C/C1=C(C)CC(O)CC1(C)C (stereo not drawn) | > 100 |  | > 100 | > 100 | > 100 | > 100 | > 100 | 72.1 | > 100 | 72.5 |  | 52.7 | > 100 |
| O=C(NCCNCCCNC(=O)c1cc(-c2ccccc2)nc2ccccc12)c1cccc(OCc2ccccc2)c1OCc1ccccc1 | 3.19 | 3.61 | 3.37 | 3.12 | 3.15 | 3.26 | 3.05 | 3.36 | 3.03 | 3.09 |  |  | 3.44 |
| O=C(CNC(c1ccccc1)(c1ccccc1)c1ccccc1)NC1CCCCC1NC(=O)CNC(c1ccccc1)(c1ccccc1)c1ccccc1 (stereo not drawn) | > 100 | > 100 | > 100 | > 100 | > 100 | > 100 | > 100 | > 100 | > 100 | > 100 | > 100 |  | > 100 |
| CCCCCC/C=C1\CCC(CN2CCOCC2)C1=O (stereo not drawn) | 31.2 | 32.1 | 24.7 | 38.4 | 32.7 |  |  | 32.7 | 39.3 | 8.75 | 38.9 |  | 36.6 |
| Fc1ccc(-c2sc(-c3cccs3)cc2Cc2cccs2)cc1 | > 100 | > 100 | > 100 | > 100 | > 100 | > 100 |  | > 100 | > 100 | > 100 | > 100 | > 100 | > 100 |
| FC(F)(Sc1ncc[nH]1)c1nc2ccccc2o1 | > 100 | > 100 | > 100 | > 100 | > 100 | > 100 | > 100 | > 100 | > 100 | > 100 |  | > 100 | > 100 |
| COc1ccc(C(=O)/C=C/c2ccc(OCCSCCCCCCCCCCSCCOc3ccc(/C=C/C(=O)c4ccc(OC)c(OC)c4)cc3)cc2)cc1OC | > 100 | > 100 | > 100 | > 100 | > 100 | > 100 | > 100 |  | > 100 | > 100 |  |  | > 100 |
| CC(=O)OC1COC(N2C(=O)C(=O)c3cc(Br)ccc32)C(OC(C)=O)C1OC(C)=O (stereo not drawn) | > 100 | > 100 | > 100 | > 100 | > 100 |  |  | > 100 | > 100 | > 100 | > 100 | > 100 | > 100 |
| OCCOc1ccccc2cccc1-2 | > 100 | > 100 | > 100 | > 100 | > 100 | > 100 | > 100 | > 100 | > 100 | > 100 | > 100 |  | > 100 |
| CCOP(=O)(OCC)/C(C#N)=C/c1cnc[nH]1 | > 100 | > 100 | > 100 | > 100 | > 100 | > 100 |  | > 100 | > 100 | > 100 | > 100 | > 100 | > 100 |
| COP(=O)(OC)C(O)CC(C)C (stereo not drawn) |  | > 100 | > 100 | > 100 |  | > 100 | > 100 | > 100 | > 100 | > 100 | > 100 | > 100 |  |
| CSc1ncc2c(n1)sc1c(=O)n(-c3ccccc3)cnc12 |  | > 100 | > 100 | > 100 | > 100 | > 100 | > 100 | > 100 | > 100 | > 100 | > 100 | > 100 | > 100 |
| Cc1c2ccncc2c(C)c2c1[nH]c1ccc(OCC(F)(F)F)cc12 | 3.16 |  | 2.79 | 3.35 | 2.59 |  |  | 3.29 | 3.01 | 2.9 | 3.03 | 3.46 | 3.03 |
| COc1ccc(C2CC3(c4ccccc4)ON=C(c4ccccc4)N3c3ccccc3S2)cc1 (stereo not drawn) | > 100 | > 100 | > 100 | > 100 | > 100 | > 100 | > 100 | > 100 | > 100 | > 100 |  | > 100 | > 100 |
| CC(C)(C)C1=CC(=C2C(=O)C(=O)c3ccccc3C2=O)C=C(C(C)(C)C)C1=O | > 100 | > 100 | > 100 | > 100 | > 100 |  |  | > 100 | > 100 | > 100 | > 100 |  | > 100 |
| CC(C)(CCCCC(C)(C)[N+](C)(C)C)[N+](C)(C)C | > 100 |  |  | > 100 | > 100 |  | > 100 |  |  | > 100 | > 100 |  | > 100 |
| COc1cc2c(cc1OCCCCOc1cc3c(cc1OC)C(=O)N1CCC[C@H]1C(=O)N3)N=C[C@@H]1CCCN1C2=O |  | 10.3 | 22.2 | 14.8 | 27.8 | 44.3 | 19.6 | 25.7 | 26 | 39.2 | 20.5 | 14.8 | 20.7 |
| COC(=O)CCC(C)C1CCC2C3C(C[C@H](OC(C)=O)[C@]12C)[C@@]1(C)CCC2(C[C@H]1C[C@H]3OC(C)=O)OOC1(CC[C@]3(C)C4C[C@H](OC(C)=O)[C@]5(C)C(C(C)CCC(=O)OC)CCC5C4[C@H](OC(C)=O)C[C@@H]3C1)OO2 (stereo partly drawn) |  |  | > 100 | > 100 | > 100 | > 100 | > 100 | > 100 | > 100 | > 100 | > 100 | > 100 | > 100 |
